Measurements: patent US20240083872A1, “CYCLIC AMINE DERIVATIVES HAVING SEROTONIN RECEPTOR BINDING ACTIVITY” (Shionogi & Co., Ltd., priority 2020, published 2024)
Read-outs that look alike come from different tables or passages of the source.

How the values were obtained:
[1] = target: human recombinant 5-HT2A receptor (Homo sapiens (Human), UniProt P28223); assay: 5-HT2A receptor binding inhibition test ([3H]-Ketanserin); details: Jump-In HEK cell membrane
Experimental: Test Example 1: 5-HT2A Receptor Binding Inhibition Test
(§1) (Each Experimental Condition)
Cell membrane: Jump-In HEK cell membrane (expressing human recombinant 5-HT2A receptor)
(§2) Assay buffer: Tris-HCl 50 mmol/L (pH 7.4) containing NaCl 120 mmol/L, MgCl2.6H2O 1 mmol/L, KCl 5 mmol/L, 0.1% BSA, and CaCl2 2 mmol/L
Radioactive ligand: [^3H]-Ketanserin around Kd value calculated by the following method
(§3) Non-specific ligand: Serotonin HCl
(§4) The Kd value was calculated when the lot of cell membrane was changed. In advance, 0.5 μL of a 1 mmol/L compound for non-specific binding calculation dissolved in DMSO or DMSO was dispensed into a microplate, and the cell membrane was diluted with an Assay buffer. The radioactive ligand solution was serially diluted and the count was confirmed with a liquid scintillator. Assay buffer containing diluted cell membrane was dispensed into a microplate at 50 μL/well. Then, the radioactive ligand solution was dispensed into a microplate at 50 μL/well, and the plate was sealed. It was allowed to stand at room temperature (25° C.) for 1.5 hours. During this period, 50 mmol/L Tris-HCl (pH 7.4) was dispensed into a GF/B UniFilter plate at 50 μL/well and allowed to stand at 4° C. for 1 hour or longer. After that, filtration was performed with Cell harvester (PerkinElmer). The radioactive ligand solution was dispensed into an empty well of the GF/B UniFilter plate at 10 μL/well. After the GF/B UniFilter plate was dried at room temperature, MicroScinti 20 was dispensed into the GF/B UniFilter plate at 50 μL/well, and the plate was sealed. The GF/B UniFilter plate was allowed to stand overnight at room temperature. The radioactivity of [^3H]-Ketanserin bound to the 5-HT2A receptor was measured using Microbeta2 (PerkinElmer) at a measurement time of 1 min/well. The Saturation curve was drawn from the measured value, and the Kd value was calculated from the slope of the Scatchard Plot.
(§5) (Binding Test of the Compound According to the Present Invention)
(§6) In advance, 0.5 μL of the compound solution dissolved in DMSO was dispensed into a microplate, and the cell membrane and the hot ligand were diluted with Assay buffer, respectively. Then, the Assay buffer containing the diluted cell membrane was dispensed into a microplate at 50 μL/well. Then, the radioactive ligand solution was dispensed into a microplate at 50 μL/well, and the plate was sealed. Then, it was allowed to stand at room temperature (25° C.) for 1.5 hours. During this period, 50 mmol/L Tris-HCl (pH 7.4) was dispensed into a GF/B UniFilter plate at 50 μL/well and allowed to stand at 4° C. for 1 hour or longer. After that, filtration was performed with Cell harvester (PerkinElmer). After the GF/B UniFilter plate was dried at room temperature, MicroScinti 20 was dispensed into the GF/B UniFilter plate at 50 μL/well, and the plate was sealed. The GF/B UniFilter plate was allowed to stand overnight at room temperature. The radioactivity of [^3H]-Ketanserin bound to the 5-HT2A receptor was measured using Microbeta2 (PerkinElmer) at a measurement time of 1 min/well. The non-specific binding was calculated from the radioactivity of [^3H]-Ketanserin in the presence of […] Serotonin HCl with the unlabeled ligand, and the total binding was calculated from the radioactivity of [^3H]-Ketanserin in the absence of the compound according to the present invention (Vehicle). Finally, the Ki value was calculated from the dose-response curve.
(§7) (The binding activity of the compound according to the present invention was calculated from the following binding inhibition rate (%).)
(§8) Inhibition rate (%)=[1−(c−a)/(b−a)]×100 • a; mean cpm of non-specific binding • b; mean cpm of total binding • c; cpm in the presence of the test compound

[2] = target: human recombinant 5-HT2C receptor (Homo sapiens (Human), UniProt P28335); assay: 5-HT2C receptor binding inhibition test ([3H]-Mesulergine)
human recombinant 5-HT2C receptor, sequence (P28335 33-458): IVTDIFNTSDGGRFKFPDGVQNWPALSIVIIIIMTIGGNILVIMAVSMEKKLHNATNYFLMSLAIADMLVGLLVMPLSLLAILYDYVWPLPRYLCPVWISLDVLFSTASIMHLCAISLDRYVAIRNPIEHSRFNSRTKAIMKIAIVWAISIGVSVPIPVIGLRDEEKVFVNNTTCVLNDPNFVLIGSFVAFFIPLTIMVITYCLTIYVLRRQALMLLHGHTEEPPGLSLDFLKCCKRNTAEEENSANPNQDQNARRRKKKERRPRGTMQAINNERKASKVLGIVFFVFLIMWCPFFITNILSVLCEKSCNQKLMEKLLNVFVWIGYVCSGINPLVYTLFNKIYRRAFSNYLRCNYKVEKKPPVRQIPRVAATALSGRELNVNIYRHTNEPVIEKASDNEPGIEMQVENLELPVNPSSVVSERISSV
Experimental: as §1
Cell membrane: Jump-In HEK cell membrane (expressing human recombinant 5-HT2C receptor)
as §2
Radioactive ligand: [^3H]-Mesulergine around Kd value calculated by the following method
as §3
as §4, with “[…]” for “4°”, “The radioactivity of [^3H]-Ketanserin bound to the 5-HT2A receptor was measured using Microbeta2 (PerkinElmer) at a measurement time of 1 min/well.” left out
as §5
as §6, with “37° C.” for “room temperature (25° C.)”, “2” for “1.5”, “The radioactivity of [^3H]-Ketanserin bound to the 5-HT2A receptor was measured using Microbeta2 (PerkinElmer) at a measurement time of 1 min/well.” left out, “[^3H]-Mesulergine” for “[^3H]-Ketanserin”
as §7, §8

[3] = Jump-In HEK cell membrane, [3H]-Mesulergine, read-out: h-5-HT2C Ki
[4] = read-out: human serotonin 5-HT2A receptor binding activity, Ki value
[5] = Jump-In HEK cell membrane, [3H]-Mesulergine, read-out: human serotonin 5-HT2C receptor binding inhibitory activity, Ki value

human recombinant 5-HT2A receptor, sequence (P28223 whole entry): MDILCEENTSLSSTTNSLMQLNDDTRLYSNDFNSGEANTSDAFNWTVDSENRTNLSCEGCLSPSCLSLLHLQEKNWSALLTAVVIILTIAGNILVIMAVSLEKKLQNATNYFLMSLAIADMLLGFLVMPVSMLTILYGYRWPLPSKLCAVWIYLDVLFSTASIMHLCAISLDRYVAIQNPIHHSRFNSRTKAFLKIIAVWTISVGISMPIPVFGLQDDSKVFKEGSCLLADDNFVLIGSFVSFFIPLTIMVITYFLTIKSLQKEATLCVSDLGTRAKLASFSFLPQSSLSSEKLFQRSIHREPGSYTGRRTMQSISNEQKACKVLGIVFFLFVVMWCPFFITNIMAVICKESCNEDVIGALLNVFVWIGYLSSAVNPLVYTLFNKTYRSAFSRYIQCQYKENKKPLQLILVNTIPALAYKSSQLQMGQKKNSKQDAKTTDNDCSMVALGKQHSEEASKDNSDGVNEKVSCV

Compound | Ki ([1]; read-out: h-5-HT2A Ki) | Ki [2, 3] | Ki [1, 4] | Ki [2, 5] | Ki [2]
CC(C)COc1ccc(CN(Cc2nccs2)C(=O)NC2CCN(C)CC2)cc1 [Compound I-025] | 0.01 to 0.1 µM | 0.01 to 0.1 µM |  |  | 
CN1CCC(NC(=O)N(Cc2ccc3c(c2)OCO3)Cc2ccn(C)n2)CC1 [Compound I-026] | 0.01 to 0.1 µM | 0.1 to 5 µM |  |  | 
CC(C)COc1ccc(CN(Cc2ccn(C)n2)C(=O)N[C@@H]2CCNCC2(F)F)cc1 [Compound I-027] | 0.1 to 5 µM | 0.1 to 5 µM |  |  | 
CN1CCC(NC(=O)N(Cc2ccc(C3CC3)cc2)Cc2ccn(C)n2)CC1 [Compound I-029] |  |  | 0.00433 µM | 0.0205 µM | 
Cc1ccc(CN(Cc2ccc(OCC(C)C)cc2)C(=O)NC2CCN(C)CC2)nc1 [Compound I-031] |  |  | 0.000709 µM | 0.00189 µM | 
CC(C)COc1ccc(CN(Cc2ccc(C#N)cn2)C(=O)NC2CCN(C)CC2)cc1 [Compound I-032] | 0.01 to 0.1 µM | 0.1 to 5 µM |  |  | 
CC(C)COc1ccc(CN(Cc2cc3ccccc3o2)C(=O)NC2CCN(C)CC2)cc1 [Compound I-033] |  |  | 0.00401 µM | 0.0289 µM | 
CC(C)COc1ccc(CN(Cc2cccs2)C(=O)NC2CCN(C)CC2)cc1 [Compound I-034] | < 0.01 µM | 0.01 to 0.1 µM |  |  | 
CC(C)COc1ccc(CN(Cc2cocn2)C(=O)NC2CCN(C)CC2)cc1 [Compound I-035] | < 0.01 µM | 0.01 to 0.1 µM |  |  | 
CC(C)COc1ccc(CN(Cc2ccn(C)n2)C(=O)CN2CCN(C)CC2)cc1 [Compound I-036] | 0.01 to 0.1 µM | 0.1 to 5 µM |  |  | 
CC(C)COc1ccc(CN(Cc2ccn(C)n2)C(=O)N[C@H]2CCN(C)CC23CC3)cc1 [Compound I-037] |  |  | 0.0047 µM | 0.00211 µM | 
Cc1ccc(CN(Cc2ccn(C)n2)C(=O)NC2CCN(C)CC2)cc1 [Compound I-038] | 0.01 to 0.1 µM | 0.01 to 0.1 µM |  |  | 
Cc1cc(CN(Cc2ccc(OCC(C)C)cc2)C(=O)NC2CCN(C)CC2)no1 [Compound I-039] | 0.01 to 0.1 µM | 0.01 to 0.1 µM |  |  | 
CC(C)COc1ccc(CN(Cc2ccn(C)c2)C(=O)NC2CCN(C)CC2)cc1 [Compound I-040] | < 0.01 µM | 0.01 to 0.1 µM |  |  | 
CC(C)COc1ccc(CN(Cc2nn(C)cc2Cl)C(=O)NC2CCN(C)CC2)cc1 [Compound I-041] | 0.01 to 0.1 µM | 0.01 to 0.1 µM |  |  | 
COc1ccc(CN(Cc2ccc(F)cn2)C(=O)NC2CCN(C)CC2)cc1 [Compound I-042] | < 0.01 µM | 0.01 to 0.1 µM |  |  | 
CN1CCC(NC(=O)N(Cc2ccc(OC(F)(F)F)cc2)Cc2ccn(C)n2)CC1 [Compound I-046] |  |  | 0.00309 µM | 0.0145 µM | 
CC(C)Oc1ccc(CN(Cc2ccn(C)n2)C(=O)NC2CCN(C)CC2)cc1 [Compound I-047] | 0.01 to 0.1 µM | 0.01 to 0.1 µM |  |  | 
CC(C)COc1ccc(CN(Cc2ccn(C)n2)C(=O)N[C@H]2CCNC[C@H]2F)cc1 [Compound I-048] | < 0.01 µM | < 0.01 µM |  |  | 

Compound | Ki ([1]; read-out: h-5-HT2A Ki) | Ki [2, 3] | Ki [1, 4] | Ki [2, 5] | Ki [2]
CC(C)COc1ccc(CN(Cc2ccn(C)n2)C(=O)N[C@H]2CCN(C)C[C@H]2F)cc1 [Compound I-049] | < 0.01 µM | < 0.01 µM |  |  | 
CC(C)COc1ccc(CN(Cc2ccc(F)cn2)C(=O)N[C@H]2CCN(C)C[C@H]2F)cc1 [Compound I-050] | < 0.01 µM | < 0.01 µM |  |  | 
COc1ccc(CN(Cc2ccn(C)n2)C(=O)NC2CCN(C)CC2)nc1 [Compound I-051] | 0.1 to 5 µM | 0.1 to 5 µM |  |  | 
CC(C)COc1ccc(CN(Cc2ccn(C)n2)C(=O)N[C@H]2[C@@H]3CN(C)C[C@@H]32)cc1 [Compound I-058] | 0.01 to 0.1 µM | 0.01 to 0.1 µM |  |  | 
CC(C)COc1ccc(CN(Cc2ccn(C)n2)C(=O)NCC2CN(C)C2)cc1 [Compound I-059] | 0.01 to 0.1 µM | 0.1 to 5 µM |  |  | 
CC(C)COc1ccc(CN(Cc2cnn(C)c2)C(=O)NC2CCN(C)CC2)cc1 [Compound I-060] | 0.01 to 0.1 µM | 0.01 to 0.1 µM |  |  | 
CC(C)COc1ccc(CN(Cc2ccn(C)n2)C(=O)NC2CC3CC2CN3C)cc1 (stereo not shown) [Compound I-061] | < 0.01 µM | 0.01 to 0.1 µM |  |  | 
COCCN1CCC(NC(=O)N(Cc2ccc(OCC(C)C)cc2)Cc2ccn(C)n2)CC1 [Compound I-063] | 0.01 to 0.1 µM | 0.01 to 0.1 µM |  |  | 
CC(C)COc1ccc(CN(Cc2ccn(C)n2)C(=O)N[C@H]2CCN(C)C[C@@H]2C)cc1 [Compound I-064] | < 0.01 µM | < 0.01 µM |  |  | 
CC(C)COc1ccc(CN(Cc2ccn(C)n2)C(=O)N[C@@H]2CCN(C)C[C@H]2C)cc1 [Compound I-065] | < 0.01 µM | < 0.01 µM |  |  | 
CC(C)COc1ccc(CN(Cc2ccn(C)n2)C(=O)NC2(C)CCN(C)CC2)cc1 [Compound I-066] | 0.01 to 0.1 µM | 0.1 to 5 µM |  |  | 
CC(C)COc1ccc(CN(Cc2ccn(C)n2)C(=O)NC23CCN(CC2)CC3)cc1 [Compound I-068] | 0.01 to 0.1 µM |  |  |  | 0.1 to 5 µM
CCN1CCC(NC(=O)N(Cc2ccc(OCC(C)C)cc2)Cc2ccn(C)n2)CC1 [Compound I-069] | < 0.01 µM | 0.01 to 0.1 µM |  |  | 
CC(C)COc1ccc(CN(Cc2ccn(C)n2)C(=O)N[C@H]2C[C@H]3CC[C@@H](C2)N3C)cc1 [Compound I-070] | 0.01 to 0.1 µM |  |  |  | 0.01 to 0.1 µM
CC(C)COc1ccc(CN(Cc2ccn(C)n2)C(=O)NC2CCN(CC3CCC3)CC2)cc1 [Compound I-076] | < 0.01 µM | 0.01 to 0.1 µM |  |  | 
Cc1nc(CN(Cc2ccc(OCC(C)C)cc2)C(=O)N[C@H]2CCN(C)C[C@H]2F)co1 [Compound I-078] | < 0.01 µM | < 0.01 µM |  |  | 
CC(C)COc1ccc(CN(Cc2ccn(C)n2)C(=O)NC2CCNCC2)cc1 [Compound I-079] | < 0.01 µM | < 0.01 µM |  |  | 
Cc1nc(CN(Cc2ccc(OCC(C)C)cc2)C(=O)N[C@H]2CCNC[C@H]2F)co1 [Compound I-080] | < 0.01 µM | < 0.01 µM |  |  | 
Cc1ccc(CN(Cc2ccc(OCC(C)C)cc2)C(=O)OC2CCN(C)CC2)[nH]1 [Compound I-085] | < 0.01 µM | 0.01 to 0.1 µM |  |  | 
